Data published in publication PMC10126264, “Synergistic effect and antibiofilm activity of the antimicrobial peptide K11 with conventional antibiotics against multidrug-resistant and extensively drug-resistant Klebsiella pneumoniae” (Frontiers in Cellular and Infection Microbiology, 2023).
≈ marks a conversion by molar mass, not a printed value. Like-named read-outs stand apart in the source and are kept apart here. Residues, ends and D or L forms follow the SMILES beside them.

What was measured:
[1] = system: K. pneumoniae ATCC BAA-1706
Method: (§1) The effects of various cations and serum on the antimicrobial activity of K11 were investigated against K. pneumoniae ATCC 70063 and K. pneumoniae ATCC BAA-1706 by the MIC assay, as described above. For salt stability, 2 mg/mL of K11 was dissolved in solutions containing different salts at their physiological concentrations; NaCl (100, 150, and 200 mM), MgCl2 (0.5, 1 and 2 mM), and FeCl3 (1, 4, and 8 mM), then incubated for 1 h at 37°C. Subsequently, serially 2-fold diluted K11 solutions were prepared in CAMHB, and aliquots of each peptide solution were added to a 96-well plate. An equal volume of bacterial suspension was added, and the mixtures were incubated at 37°C for 20-24 h ([Ko et al., 2019]). For serum stability, 2 mg/mL of K11 was prepared in solution with 25% and 50% FBS and incubated for 1 h at 37°C, then heat […] for 30 min at 60°C. A series of 2-fold dilutions of K11 were performed in CAMHB and transferred to a 96-well plate. The diluted bacterial suspension was added to the well, and mixtures were incubated for 20-24 h at 37°C ([Oliva et al., 2018]). The antimicrobial activity was determined by measuring the MICs.

K. pneumoniae ATCC 70063 [2] = system: K. pneumoniae ATCC 70063
Method: as §1

K. pneumoniae ATCC 70063 [3] = system: K. pneumoniae ATCC 70063; remark: listed apart in the source
Method: as §1, with “For salt stability, 2 mg/mL of K11 was dissolved in solutions containing different salts at their physiological concentrations; NaCl (100, 150, and 200 mM), MgCl2 (0.5, 1 and 2 mM), and FeCl3 (1, 4, and 8 mM), then incubated for 1 h at 37°C.” left out

[4] = ref Jin-Jiang et al., 2012; cited from earlier work
Source text: K11 is a synthetic peptide derived from natural AMPs (cecropin A1, melittin, and maganin 2), composed of 20 amino acids ([…]-NH2). […] Moreover, K11 has also been successfully used in vivo as a topic hydrogel solution against Acinetobacter baumannii-infected wounds ([Rishi et al., 2018]).

[5] = system: MDR/XDR K. pneumoniae clinical isolates; assay: microbe, parasite or virus in culture; conditions: for MIC: broth microdilution in CAMHB, 20-24 h at 37°C; for MBC: wells with no visible growth plated on MHA, 37°C, kills at least 99.9% of inoculum
Method: The ability of K11 to inhibit bacterial growth was determined by the broth microdilution method ([Clinical and Laboratory Standards Institute, 2018]). Briefly, a series of 2-fold dilutions of K11 were prepared from 1,024 to 2 µg/mL in cation-adjusted Mueller-Hinton broth (CAMHB), Then 50 µL of each peptide dilution was added to each well of polystyrene 96-well U-bottom microplates. The log-phase cultures were adjusted to 0.5 McFarland standard and diluted 1:100 in CAMHB to provide the density of 10^6 CFU/mL. Consequently, 50 µL of diluted bacterial suspension was added to wells containing 50 µL of peptide solution, followed by incubation for 20-24 h at 37°C. […] To evaluate MBC, a volume of 10 μL was taken from each well with no visible growth, inoculated on Mueller-Hinton agar (MHA) plates, and incubated at 37°C. The MBC was defined as the lowest concentration of antimicrobials that killed at least 99.9% of the initial inoculums ([Clinical and Laboratory Standards Institute, 1999]).

K. pneumoniae ATCC 70063 [6] = system: K. pneumoniae ATCC 70063; remark: listed apart in the source
[7] = murine excision model; ref Rishi et al., 2018; cited from earlier work
Source text: The pH and thermal stability of AMPs are essential for their preparation, processing, and storage ([Zong et al., 2016]). At the same time, the stability of AMPs in serum and under physiological salt conditions is also crucial when administrating AMPs in vivo ([Rodríguez et al., 2021]).

[8] = system: K. pneumoniae ATCC BAA-1706; remark: listed apart in the source
Method: The effects of various cations and serum on the antimicrobial activity of K11 were investigated against K. pneumoniae ATCC 70063 and K. pneumoniae ATCC BAA-1706 by the MIC assay, as described above. For salt stability, 2 mg/mL of K11 was dissolved in solutions containing different salts at their physiological concentrations; NaCl (100, 150, and 200 mM), MgCl2 (0.5, 1 and 2 mM), and FeCl3 (1, 4, and 8 mM), then incubated for 1 h at 37°C. Subsequently, serially 2-fold diluted K11 solutions were prepared in CAMHB, and aliquots of each peptide solution were added to a 96-well plate. An equal volume of bacterial suspension was added, and the mixtures were incubated at 37°C for 20-24 h ([Ko et al., 2019]). […] The antimicrobial activity was determined by measuring the MICs.

[9] = K11 2 mg/mL in 25% FBS, 1 h at 37°C, then 30 min at 60°C, then MIC in CAMHB
[10] = K11 2 mg/mL in 50% FBS, 1 h at 37°C, then 30 min at 60°C, then MIC in CAMHB
[11] = K11 2 mg/mL in FeCl3 1 µM, 1 h at 37°C, then MIC in CAMHB
[12] = K11 2 mg/mL in FeCl3 4 µM, 1 h at 37°C, then MIC in CAMHB
[13] = K11 2 mg/mL in FeCl3 8 µM, 1 h at 37°C, then MIC in CAMHB
[14] = K11 2 mg/mL in MgCl2 0.5 mM, 1 h at 37°C, then MIC in CAMHB
[15] = K11 2 mg/mL in MgCl2 1 mM, 1 h at 37°C, then MIC in CAMHB
[16] = K11 2 mg/mL in MgCl2 2 mM, 1 h at 37°C, then MIC in CAMHB
[17] = K11 2 mg/mL in NaCl 100 mM, 1 h at 37°C, then MIC in CAMHB
[18] = K11 2 mg/mL in NaCl 200 mM, 1 h at 37°C, then MIC in CAMHB
[19] = MDR/XDR K. pneumoniae clinical isolates

## CC[C@H](C)[C@H](NC(=O)[C@H](Cc1ccccc1)NC(=O)[C@H](CO)NC(=O)[C@H](CCCCN)NC(=O)[C@H](Cc1c[nH]c2ccccc12)NC(=O)[C@@H](N)CCCCN)C(=O)N[C@@H](CCCCN)C(=O)N[C@@H](CCCCN)C(=O)N[C@@H](CC(C)C)C(=O)N[C@H](C(=O)N[C@@H](CCCCN)C(=O)N[C@@H](CCCCN)C(=O)N[C@@H](Cc1ccccc1)C(=O)N[C@@H](CC(C)C)C(=O)N[C@@H](Cc1c[nH]cn1)C(=O)N[C@@H](CO)C(=O)N[C@@H](C)C(=O)N[C@@H](CCCCN)C(=O)N[C@@H](CCCCN)C(=O)N[C@@H](Cc1ccccc1)C(N)=O)[C@@H](C)O [K11] (H-KWKSFIKKLTKKFLHSAKKF-NH2)
[1]; 0% FBS (control)
  Antimicrobial activity MIC: 2 µg/mL
[1]; [9]
  Antimicrobial activity MIC: 2 µg/mL
[1]; [10]
  Antimicrobial activity MIC: 2 µg/mL
K. pneumoniae ATCC 70063 [2]; 0% FBS (control)
  Antimicrobial activity MIC: 4 µg/mL
K. pneumoniae ATCC 70063 [2]; [9]
  Antimicrobial activity MIC: 4 µg/mL
K. pneumoniae ATCC 70063 [2]; [10]
  Antimicrobial activity MIC: 4 µg/mL
K. pneumoniae ATCC 70063 [3]; Control, salt concentration 0
  Antimicrobial activity MIC: 4 µg/mL
K. pneumoniae ATCC 70063 [3]; [11]
  Antimicrobial activity MIC: 4 µg/mL
K. pneumoniae ATCC 70063 [3]; [12]
  Antimicrobial activity MIC: 4 µg/mL
K. pneumoniae ATCC 70063 [3]; [13]
  Antimicrobial activity MIC: 4 µg/mL
K. pneumoniae ATCC 70063 [3]; [14]
  Antimicrobial activity MIC: 4 µg/mL
K. pneumoniae ATCC 70063 [3]; [15]
  Antimicrobial activity MIC: 4 µg/mL
K. pneumoniae ATCC 70063 [3]; [16]
  Antimicrobial activity MIC: 8 µg/mL
K. pneumoniae ATCC 70063 [3]; [17]
  Antimicrobial activity MIC: 4 µg/mL
K. pneumoniae ATCC 70063 [3]; K11 2 mg/mL in NaCl 150 mM, 1 h at 37°C, then MIC in CAMHB
  Antimicrobial activity MIC: 4 µg/mL
K. pneumoniae ATCC 70063 [3]; [18]
  Antimicrobial activity MIC: 4 µg/mL
[4]
  hemolytic activity: no hemolytic activity
[5]; KP-01
  MIC: 8 µg/mL (≈ 3.21 µM)
  MBC: 8 µg/mL (≈ 3.21 µM)
[5]; KP-02
  MIC: 64 µg/mL (≈ 25.7 µM)
  MBC: 64 µg/mL (≈ 25.7 µM)
[5]; KP-03
  MIC: 16 µg/mL (≈ 6.42 µM)
  MBC: 16 µg/mL (≈ 6.42 µM)
[5]; KP-04
  MIC: 64 µg/mL (≈ 25.7 µM)
  MBC: 128 µg/mL (≈ 51.3 µM)
[5]; KP-05
  MIC: 8 µg/mL (≈ 3.21 µM)
  MBC: 8 µg/mL (≈ 3.21 µM)
[5]; KP-06
  MIC: 64 µg/mL (≈ 25.7 µM)
  MBC: 128 µg/mL (≈ 51.3 µM)
[5]; KP-07
  MIC: 16 µg/mL (≈ 6.42 µM)
  MBC: 16 µg/mL (≈ 6.42 µM)
[5]; KP-08
  MIC: 64 µg/mL (≈ 25.7 µM)
  MBC: 128 µg/mL (≈ 51.3 µM)
[5]; KP-09
  MIC: 64 µg/mL (≈ 25.7 µM)
  MBC: 128 µg/mL (≈ 51.3 µM)
[5]; KP-10
  MIC: 64 µg/mL (≈ 25.7 µM)
  MBC: 128 µg/mL (≈ 51.3 µM)
[5]; KP-11
  MIC: 64 µg/mL (≈ 25.7 µM)
  MBC: 64 µg/mL (≈ 25.7 µM)
[5]; KP-12
  MIC: 64 µg/mL (≈ 25.7 µM)
  MBC: 64 µg/mL (≈ 25.7 µM)
[5]; KP-13
  MIC: 32 µg/mL (≈ 12.8 µM)
  MBC: 32 µg/mL (≈ 12.8 µM)
[5]; KP-14
  MIC: 256 µg/mL (≈ 103 µM)
  MBC: 256 µg/mL (≈ 103 µM)
[5]; KP-15
  MIC: 512 µg/mL (≈ 205 µM)
  MBC: 512 µg/mL (≈ 205 µM)
[5]; [19]
  MIC50: 64 µg/mL (≈ 25.7 µM)
  MIC90: 256 µg/mL (≈ 103 µM)
K. pneumoniae ATCC 70063 [6]; broth microdilution in CAMHB, 20-24 h at 37°C
  MIC: 4 µg/mL (≈ 1.6 µM)
K. pneumoniae ATCC 70063 [6]; wells with no visible growth plated on MHA, 37°C, kills at least 99.9% of inoculum
  MBC: 4 µg/mL (≈ 1.6 µM)
[7]
  cytotoxicity: no cytotoxicity
[8]; Control, salt concentration 0
  Antimicrobial activity MIC: 2 µg/mL
[8]; [11]
  Antimicrobial activity MIC: 2 µg/mL
[8]; [12]
  Antimicrobial activity MIC: 2 µg/mL
[8]; [13]
  Antimicrobial activity MIC: 2 µg/mL
[8]; [14]
  Antimicrobial activity MIC: 2 µg/mL
[8]; [15]
  Antimicrobial activity MIC: 2 µg/mL
[8]; [16]
  Antimicrobial activity MIC: 2 µg/mL
[8]; [17]
  Antimicrobial activity MIC: 2 µg/mL
[8]; K11 2 mg/mL in NaCl 150mM, 1 h at 37°C, then MIC in CAMHB
  Antimicrobial activity MIC: 4 µg/mL
[8]; [18]
  Antimicrobial activity MIC: 4 µg/mL
